This note sets out measurements from PubChem BioAssay (NCI).

The structures appear in SMILES notation.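 Cultured in 96-well plates, cells were exposed to test compound for 48 hours across five concentrations. GI50 is the concentration that inhibits growth by half. TGI: total growth inhibition.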

Common to all, as to experiment: NCI anticancer screen, dose series, 48 h
Assay [1] relates to SR leukemia.
Assay [2] has as its system M14 melanoma.
The subject of assay [3] is PC-3 prostate.
The test system of assay [4] is 786-0 renal.
Assay [5] has as its system BT-549 breast.
Assay [6] deals with KM12 colon.
Assay [7] deals with OVCAR-3 ovarian.
Assay [8] deals with K-562 leukemia.
Assay [9] deals with CAKI-1 renal.
The test system of assay [10] is NCI-H226 lung.

Consider `COc1ccc(-c2nc(-c3cnccn3)n(C3OC(CO)C(O)C(O)C3O)n2)cc1` (stereo not given), for which the TGI in assay [1], in [2], in assay [3], in assay [4], in [5] and in [6] was above 100 µM throughout. The TGI in [7] and in assay [8] was above 100 µM throughout.

Take `CCOC(=O)/C(C#N)=C/N(CC)/N=C/c1ccccc1`: the TGI in assay [1], in assay [2], in assay [9], in assay [3], in assay [4] and in [5] was above 100 µM each time. Moreover, the TGI in assay [6], in assay [7], in assay [8] and in assay [10] was above 100 µM in each case.

As to `O=C(/C=C/c1ccco1)c1cccc(C(=O)/C=C/c2ccco2)n1`, the TGI in [1] is 6.82 µM; in [2], above 96.3 µM; in assay [9], above 100 µM; in [3], above 100 µM; in assay [4] it was 20.5 µM; in assay [5] it was 78.4 µM. Moreover, the TGI in [6] was above 55.8 µM; in assay [7] it was above 100 µM; in [8], above 100 µM; in assay [10], above 100 µM.

For `O=C1CC2(CCNCC2)C(=O)N1N1CCOCC1`, the TGI in assay [1], in assay [2], in assay [9], in [3], in [4] and in assay [5] was above 100 µM in each case. Besides, the TGI in assay [6], in assay [7], in [8] and in assay [10] was above 100 µM each time.

On to `C=C1CC(Cn2cc(Br)c(=O)[nH]c2=O)(c2ccc(-c3ccccc3)cc2)OC1=O` (stereo not given), for which the TGI came to 3.12 µM in assay [2]; 4.41 µM in assay [9]; 3.31 µM in assay [3]; 2.29 µM in [4]; 3.31 µM in assay [5]; 3.68 µM in assay [6]. For the same compound, the figures for the TGI in assay [7], in [8] and in assay [10] were 2.98 µM, above 100 µM and 4.31 µM, respectively.

In the case of `CCCCCCOP(=O)(OCCCCCC)OC(C(=O)OC)C(F)(F)F` (stereo not given), the TGI in assay [1], in [2], in assay [9], in assay [3], in assay [4] and in assay [5] was above 100 µM throughout. The TGI in assay [6], in assay [7], in assay [8] and in [10] was above 100 µM in each case.

Turning to `NS(=O)(=O)c1cc(S(N)(=O)=O)c(NC(=O)N(c2ccccc2)c2ccccc2)c(Cl)c1Cl`, the TGI is 43.1 µM in assay [1]; 51.4 µM in assay [2]; 65.2 µM in assay [9]; above 100 µM in [3]; above 100 µM in assay [4]; 36.1 µM in [5]. Further, the TGI in assay [6] was found to be 57.1 µM; in assay [7], 49.4 µM; in [8], 81.4 µM; in [10], 53.7 µM.

Turning to `CC12CC(c3ccccc3O1)C(C(=O)Nc1cccc(F)c1)C(=O)N2` (stereo not given), the TGI is above 100 µM in [1]; above 100 µM in assay [2]; above 100 µM in assay [9]; above 100 µM in assay [3]; above 100 µM in assay [4]; 66.8 µM in assay [5]. The TGI in assay [6], in [7] and in assay [8] was above 100 µM throughout.

In the case of `O=C(c1ccco1)C1CC(c2ccc3ccccc3c2O)=NN1c1ccc([N+](=O)[O-])cc1[N+](=O)[O-]` (stereo not given), the TGI in assay [1] is 23.1 µM; in assay [2], above 100 µM; in assay [9], above 100 µM; in [3], above 100 µM; in assay [4], above 100 µM; in assay [5], above 100 µM. The TGI in assay [6] is 26.2 µM; in assay [7] it was above 100 µM; in assay [10], above 100 µM.

Take `O=C1CSc2nnc(CCCCCCCCc3nnc4n3NC(=O)CS4)n2N1`: the TGI in assay [1], in assay [2], in assay [9], in assay [3], in assay [4] and in [5] was above 100 µM throughout. For the same compound, the TGI in assay [6], in [7], in assay [8] and in [10] was above 100 µM each time.

Consider `CC(C)(C)c1c(C(C)(C)C)c(=O)c1=O`, for which the TGI in assay [2], in [9], in [3], in [4], in assay [5] and in assay [6] was above 100 µM throughout. The TGI in assay [7], in assay [8] and in assay [10] was above 100 µM throughout.

With `O=S1(=O)CCN(c2ccccc2CC(c2c[nH]c3ccccc23)c2c[nH]c3ccccc23)CC1`, the TGI in assay [1] is 20.1 µM; in [2], 20.5 µM; in assay [9], above 85.2 µM; in assay [3], 13.2 µM; in [4], 27.8 µM; in assay [5] it was 37.3 µM. Further, the TGI in [6] came out at 13.5 µM; in assay [7], 20.9 µM; in [8], 45.1 µM; in [10], 42.7 µM.

With `c1ccc([P+](c2ccccc2)(c2ccccc2)c2ccc([P+](c3ccccc3)(c3ccccc3)c3ccccc3)cc2)cc1`, the TGI in [1], in assay [2], in [9], in [3], in assay [4] and in assay [5] was above 100 µM in each case. Further, the TGI in [6], in assay [7], in assay [8] and in assay [10] was above 100 µM each time.

`CC(C)(C)OC(=O)N1CCc2c(n(C/C=C/c3ccccc3)[nH]c2=O)C1`: the TGI in assay [1], in assay [2], in assay [9], in [3], in assay [4] and in assay [5] was above 100 µM in each case. Further, the TGI in [6], in assay [7], in [8] and in [10] was above 100 µM in each case.

For the compound `COC(=O)c1ccc(/C=C2\CCc3ccccc3C2=O)cc1`, the TGI in assay [1], in assay [2], in [9], in assay [3], in assay [4] and in assay [5] was above 100 µM throughout. Besides, the TGI in assay [6], in assay [7], in assay [8] and in [10] was above 100 µM each time.

`O=S(=O)(O)C1CCC(O)C2[N-]CCCC21.O=S(=O)(O)C1CCC(O)C2[N-]CCCC21.[Zn+2]` (stereo not given): the TGI in [1], in assay [2], in [9], in assay [3], in assay [4] and in assay [5] was above 100 µM throughout. In addition, the TGI in assay [6], in [7], in [8] and in assay [10] was above 100 µM throughout.

As to `CC(C)(C)c1ccc(-c2nnc(-c3cc(C#N)cc(-c4nnc(-c5ccc(C(C)(C)C)cc5)o4)c3)o2)cc1`, the TGI in [2], in [9], in [3], in assay [4], in [5] and in assay [6] was above 100 µM in each case. For the same compound, the TGI in [7], in assay [8] and in [10] was above 100 µM throughout.

As to `O=C1CSC2(CC(/C=C/c3ccccc3Br)=NN2c2cccc(S(=O)(=O)O)c2)N1c1nc2ccccc2s1` (stereo not given), the TGI in assay [1], in [2], in [9], in [3], in assay [4] and in [5] was above 100 µM each time. Moreover, the TGI in assay [6], in [8] and in assay [10] was above 100 µM each time.

Regarding `CC/C(Cl)=N\OC(=O)Nc1ccc(F)cc1F`, the TGI in assay [2] was found to be 22.3 µM; in assay [9], 3.09 µM; in assay [3] it was 33.3 µM; in assay [4], 8.77 µM; in [5] it was 6.93 µM; in assay [6], 41.3 µM. Also, the results for the TGI in assay [7], in assay [8] and in assay [10] were 31.9 µM, 2.34 µM and 34.2 µM, respectively.

For `CC12CC(C/C1=N/O)C(C)(C)C2` (stereo not given), the TGI in assay [2], in [9], in assay [3], in assay [4], in assay [5] and in assay [6] was above 100 µM throughout. Moreover, the TGI in assay [7], in assay [8] and in assay [10] was above 100 µM each time.

In the case of `O=c1oc2ccc(Cl)cc2cc1-c1cn2ccsc2n1`, the TGI in assay [1] was above 100 µM; in assay [2] it was above 100 µM; in assay [9], above 100 µM; in assay [3] it was above 100 µM; in assay [4] it was above 100 µM; in assay [5] it was 70.3 µM. Also, the TGI in assay [6], in [7] and in [8] was above 100 µM each time.

In the case of `COC(=O)c1c(OC)cc2cc3c(c(O)c2c1C)C(=O)C1(O)C(=O)C=C(OC)C(OC(=O)CC(C)N)=C1C3=O` (stereo not given), the TGI was 47.6 µM in assay [1]; above 100 µM in [2]; above 100 µM in [9]; above 100 µM in assay [3]; above 100 µM in [4]; above 100 µM in assay [5]. Besides, the TGI was 42.7 µM in assay [6] and above 100 µM in assay [7].

For `Oc1[nH]c2ccccc2c1/C=c1/cc2c(c(-c3ccc(C(F)(F)F)cc3)n1)=Nc1ccccc1-2`, the GI50 in [1] was 1.27 µM; in assay [2], 3.89 µM; in assay [9], 3.96 µM; in assay [3] it was 2.59 µM; in assay [5], 4.17 µM; in assay [6], 2.16 µM. The results for the GI50 in [7], in [8] and in [10] were 2.36 µM, 2.57 µM and 36.4 µM, respectively. The TGI in [1] came out at 11.3 µM; in assay [2], 17.4 µM; in assay [9] it was 27.5 µM; in assay [3], 47.4 µM; in assay [5] it was 15.7 µM; in [6], 12.2 µM. Besides, the figures for the TGI in assay [7], in assay [8] and in [10] were 7.69 µM, 14.9 µM and above 100 µM, respectively.

For `CCCCCCCCCCCCCCCCOCC(Cl)COP(=O)(O)OP(=O)(O)OCC1OC(n2cnc3c(N)ncnc32)C(O)C1O` (stereo not given), the TGI in assay [2] was above 100 µM; in assay [9], above 100 µM; in assay [3] it was 96.8 µM; in assay [4], above 100 µM; in [5], above 100 µM; in [6] it was above 100 µM. Moreover, the TGI in assay [7], in assay [8] and in assay [10] was above 100 µM each time.

Take `COc1cccc(CN(C(=O)/C=C\Sc2ccccc2)C(C)(C)C)c1`: the TGI in [2], in assay [9], in assay [3], in assay [4], in assay [5] and in assay [6] was above 100 µM in each case. Besides, the TGI in [7] and in assay [10] was above 100 µM throughout.

Consider `CC(C)CCCC(C)[C@H]1CC[C@H]2N=C(Nc3ccccc3)CCC[C@]12C` (stereo not given in full), for which the TGI in assay [1] is 4.33 µM; in assay [9] it was 7.07 µM; in [3], above 100 µM; in [4], 3.45 µM; in [5], 7.66 µM; in [6], above 100 µM. For the same compound, the figures for the TGI in [7], in assay [8] and in [10] were 6.8 µM, 3.55 µM and 3.72 µM, respectively.

With `Cc1cn([C@H]2[C@@H](CO)C[C@H]2O)c(=O)[nH]c1=O`, the TGI in [1], in [9], in [3], in assay [4], in assay [5] and in [6] was above 100 µM throughout. Also, the TGI in assay [7], in assay [8] and in [10] was above 100 µM throughout.
